Here are results for one compound from US11034661B2, “Substituted N′-hydroxycarbamimidoyl-1,2,5-oxadiazole compounds as indoleamine 2,3-dioxygenase IDO inhibitors” (Merck Sharp & Dohme Corp., priority 2017, dated 2021).

Experiment [1] concerns the target IDO1 in Hela cells stimulated with IFNγ (Homo sapiens (Human), UniProt P14902). Briefly: IDO1 Cellular Assay in Hela Cells Stimulated with IFNγ. Particulars: IFNγ 100 ng/mL, about 48 hours, fluorescence readout, read-out: IDO1 HELA Cell Assay, IC50. The class given is cell-based. The gist of the method: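 IFNγ-stimulated (100 ng/mL) HeLa cells with 300 uM L-tryptophan were incubated with 10-point 3-fold compound dilutions for about 48 h at 37 °C. Kynurenine product was derivatized with methyl isonipecotate overnight and read by fluorescence (ex 400/em 510 nm). Signal was background-corrected using non-IFNγ cells and normalized to DMSO, and IC50 came from a four-parameter logistic fit.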

In experiment [2] the target is IDO1 in human whole blood stimulated with LPS and IFNγ (Homo sapiens (Human), UniProt P14902). Briefly: IDO1 Human Whole Blood Assay. In kind it is cell-based. Particulars: LPS and IFNγ 100 ng/mL, 18 h, kynurenine by LC/MS/MS. The procedure: IDO1 Human Whole Blood Assay
Compounds to be tested were serially diluted in ten 3-fold steps in DMSO starting from 10 mM. 3 μL of compound dilutions or DMSO alone were then dispensed from the dilution plate into a polypropylene 96-well assay plate containing 97 μL of RPMI using an Echo 555 acoustic liquid handler (Labcyte). LPS and IFNγ was prepared in RPMI to a 10× of final conc. (1000 ng/mL), final concentration is 100 ng/mL.
Human whole blood was drawn in sodium heparin coated tubes from healthy internal donors. Two hundred forty μL of blood was transferred to each of the wells of a v-bottom 96 well plate. Thirty μL of compound was transferred from intermediate dilution plate, and incubated for 15 min. Thirty μL from stimulants was then transferred to blood and mixed thoroughly. Plate was covered with breathable membrane and incubated at 37° C. for overnight (18 h).
On day 2 isotope labeled standard of kynurenine and tryptophan was made in water at 10× concentration and 30 μL was added to the blood at 3 μM final concentration. The assay plates were centrifuged at 300×G for 10 min with no brake to separate plasma from red blood cells. Sixty μL of plasma samples was removed without disturbing red blood cells. Plasma was diluted with RPMI in 1:1 ratio and proteins were precipitated out with two volume of Acetonitrile. The plates was centrifuged at 4000×G for 60 min. Twenty μL of supernatant was carefully transferred to a 384 well plate contain 40 μL of 0.1% formic acid in water and analyzed by LC/MS/MS.
LC/MS/MS analyses were performed using Thermo Fisher's LX4-TSQ Quantum Ultra system. This system consists of four Agilent binary high-performance liquid chromatography (HPLC) pumps and a TSQ Quantum Ultra triple quadruple MS/MS instrument. For each sample, 5 μL were injected onto an Atlantis T3 column (2.1 mm×150 mm, 3 μm particle size) from Waters. The mobile phase gradient pumped at 0.8 mL/min was used to elute the analytes from the column at 25° C. The elution started at 0% B increasing linearly to 25% B at 6.5 min, holding at 25% for 1 min, re-equilibrating to 10 min. Mobile phase A consisted of 0.1% formic acid in water. Mobile phase B consisted of 0.1% of formic acid in acetonitrile. Data was acquired in positive mode using a HESI interface. The operational parameters for the TSQ Quantum Ultra instrument were a spray voltage of 4000 V, capillary temperature of 380° C., vaporizer temperature 400° C., shealth gas 60 arbitrary units, Aux gas 20 arbitrary units, tube lens 85 and collision gas 1.2 mTorr. SRM chromatograms of kynurenine (Q 1: 209.2>Q3:94.0) and internal standard (Q1: 215.3>Q3:98.2) were collected for 90 sec. The peak area was integrated by Xcalibur Quan software. The ratios between the kynurenine generated in the reaction and 2D6-Kynurenine spiked-in internal standard were used to generate percentage inhibition and IC50 values. Compounds were titrated and IC50's were calculated by 4 parameter sigmoidal curve fitting formula.

Experiment [3] deals with HIS-tagged IDO1 protein (Homo sapiens (Human), UniProt P14902). In words: IDO1 Enzyme Assay. Particulars: recombinant IDO1 40 nM, tryptophan substrate, fluorescence readout. In kind it is biochemical. A digest of the protocol:
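Recombinant E. coli-expressed HIS-IDO1 (40 nM final) in 50 mM Tris pH 7.0 with methylene blue, ascorbate and catalase, preincubated with compound 30 min at RT, then tryptophan added and reacted 60 min at RT. Quenched with methyl isonipecotate, heated, fluorescence read (ex 400/em 510 nm); IC50 from four-parameter logistic fit.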

Structures are written as SMILES.

Chain of IDO1 in human whole blood stimulated with LPS and IFNγ (P14902 whole entry): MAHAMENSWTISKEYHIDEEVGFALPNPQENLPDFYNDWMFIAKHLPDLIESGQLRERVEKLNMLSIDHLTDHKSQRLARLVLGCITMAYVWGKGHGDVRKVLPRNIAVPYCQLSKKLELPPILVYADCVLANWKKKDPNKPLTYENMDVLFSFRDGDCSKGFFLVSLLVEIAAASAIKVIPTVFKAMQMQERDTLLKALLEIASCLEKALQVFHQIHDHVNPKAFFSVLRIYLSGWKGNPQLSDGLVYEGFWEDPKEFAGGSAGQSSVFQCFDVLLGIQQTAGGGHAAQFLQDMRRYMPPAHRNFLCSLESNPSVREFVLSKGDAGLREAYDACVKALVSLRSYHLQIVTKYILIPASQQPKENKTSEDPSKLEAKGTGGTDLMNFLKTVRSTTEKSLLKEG
Chain of IDO1 in Hela cells stimulated with IFNγ (P14902 whole entry): as above
Chain of HIS-tagged IDO1 protein (P14902 whole entry): as above

What is called IC50 is the concentration needed to halve the response being measured. Turning to `CC(=O)N[C@H]1C[C@@H](Oc2nonc2/C(=N/O)N[C@H]2Cc3ccc(F)cc32)C1` [Example 36, N-{cis-3-[(4-{N-[(7S)-4-fluorobicyclo[4.2.0]octa-1,3,5-trien-7-yl]-N′-hydroxycarbamimidoyl}-1,2,5-oxadiazol-3-yl)oxy]cyclobutyl}acetamide], the 50% inhibitory concentration (IC50) worked out at 0.0421 µM in experiment [1] and 0.0507 µM in experiment [3]. In experiment [2], the “IDO1 human whole blood assay, IC50” value was determined as 0.3142 µM.
